Assay results as given in publication PMC12802961 (Journal of Antimicrobial Chemotherapy, 2025).

What was measured:
[1] = test system: two ESBL-producing Enterobacterales and one AmpC- and one VIM-producing P. aeruginosa isolates; test: Checkerboard broth microdilution MIC, all four strains together; format: cell-based
Source text: Four previously well-characterized cefepime-resistant isolates, namely one ESBL-producing E. coli, one ESBL-producing K. pneumoniae and two P. aeruginosa (one VIM- and one AmpC constitutively -producing), were used.

[2] = test system: ESBL-producing Enterobacterales; test: Neutropenic murine thigh infection model, Enterobacterales together; format: in vivo; conditions: Ct where in vitro reversal of cefepime resistance was found
Procedure: (§1) […]. […] […]. All dosing regimens were performed in at least two animals per dosing regimen.
(§2) At t = 0 h, 2 h after infection, two mice were humanely euthanized to determine the initial number of cfu/thigh just before treatment. All other animals were euthanized at t = 24 h unless the welfare of the animals indicated earlier termination, following animal welfare regulations. Thighs were taken and moved to a pre-cooled 10 mL plastic tube (Transport Tube, Omnilabo, NL) containing 2 mL PBS (NaCl 8.00 g/L, Na2HPO4 * 2H2O 1.44 g/L, KH2PO4 0.26 g/L, pH 7.2–7.4). Subsequently, thighs were homogenized using the Ultra-Turrax homogenizer (IKA Labortechnik, Germany). For each thigh 10-fold dilution series were prepared and 3 × 10 µL per dilution were plated (Chromagar, bioMérieux, NL). The following day, colonies were counted and the number of cfu/thigh was calculated. The drug effect was then determined as the difference between the log10cfu/thigh values at t = 24 h and t = 0 h (mean value of two mice) expressed as Δlog10cfu, i.e. positive result for growth, zero for static effect and negative for reduction of inoculum (killing).
(§3) . […] Free drug concentrations were used in all calculations. […]

P. aeruginosa isolates = test: Neutropenic murine thigh infection model, P. aeruginosa isolates together; format: in vivo, Pseudomonas aeruginosa; conditions: Ct where in vitro reversal of cefepime resistance was found
Procedure: as §1, §2, §3

Structure (SMILES)	Cefepime MIC in the presence of 4 mg/L taniborbactam, all strains ([1]; +taniborbactam 4 mg/L)	MIC ([1]; Pseudomonas aeruginosa, read-out: Cefepime MIC, all strains, cefepime alone)	Cefepime MIC, all strains ([1]; cefepime alone)	%fT > Ct for 1 log kill [2]	%fT > Ct for stasis [2]	%fT > Ct for 1 log kill (P. aeruginosa isolates)	%fT > Ct for stasis (P. aeruginosa isolates)
CO/N=C(\C(=O)N[C@@H]1C(=O)N2C(C(=O)[O-])=C(C[N+]3(C)CCCC3)CS[C@H]12)c1csc(N)n1 [cefepime, Cefepime]	0.06 to 4 µg/mL	16 to 256 µg/mL	> 8 µg/mL				
NCCN[C@H]1CC[C@H](CC(=O)N[C@H]2Cc3cccc(C(=O)O)c3OB2O)CC1 [taniborbactam, Taniborbactam]				100%	~50%	~60%	~40%
